Assay results from the METLIN SMRT retention time set (Domingo-Almenara et al. 2019).

Test: gradient 5% acetonitrile 3 min, to 50% in 2 min, to 85% in 15 min, held 3 min, 100 µL/min
Conditions: column: Zorbax Extend-C18 2.1 x 50 mm; eluents: water / acetonitrile, 0.1% formic acid
Procedure, shortened: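 Mixtures of ~100 pure standards were chromatographed on a Zorbax Extend-C18 column (2.1 × 50 mm, 1.8 μm) at 100 μL/min using water and acetonitrile, each with 0.1% formic acid. Detection used a quadrupole time-of-flight mass spectrometer in positive and negative ionization mode, and data collection spanned 3 months. Retention time was obtained from adduct peaks picked computationally and each checked manually.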

| Compound | RP-LC retention time |
| --- | --- |
| CCOC(=O)c1c(C)[nH]c(CCC(=O)NCCc2c[nH]c3ccccc23)c1C | 715 s |
| O=c1ccn(-c2cccc(F)c2)nc1-c1nc(-c2ccccc2Br)no1 | 905 s |
| CCc1nc2cc(-c3noc(Cc4ccsc4)n3)ccc2o1 | 1030 s |
| CCc1ccccc1S(=O)(=O)Nc1ccc2c(c1)CCC(=O)N2CCOC | 816 s |
| O=C(NCc1ccc2c(c1)OCO2)C1CCN(C(=O)c2cccc(F)c2)CC1 | 719 s |
| CN1C(=O)COc2ccc(-c3csc(NC(=O)Cc4ccccc4)n3)cc21 | 898 s |
| COCCN1C(=O)c2ccccc2C(C(=O)NCCCN2CCCC(C)C2)C1c1cccs1 (centres undefined) | 643 s |
| COCCN1CCn2cc(S(=O)(=O)Nc3ccc(C)cc3)cc2C1=O | 715 s |
| COc1ccc(NC(=O)CSc2nnc3c4cc(-c5ccc(Cl)cc5)nn4ccn23)c(OC)c1 | 951 s |
| Cn1ncc(Cl)c1C(=O)N1CCCC1c1ccc(F)cc1 (centres undefined) | 825 s |
| CCOC(=O)N1CCN(C(c2ccc(F)cc2)c2sc3ncnn3c2O)CC1 (centres undefined) | 667 s |
| CCOC(=O)c1c(C)[nH]c(C(=O)N2CCC(C(C)C(=O)NCc3ccc(F)cc3Cl)CC2)c1C (centres undefined) | 863 s |
| O=C(CN1C(=O)COc2ccc(C(=O)N3CCCC3)cc21)N1CCc2ccccc2C1 | 721 s |
| Cc1onc(-c2ccccc2Cl)c1C(=O)Nc1nnc(-c2cccs2)o1 | 767 s |
| Cc1ccc(NC(=O)C2CCCN(c3ncnc4c3nc3n4CCCCC3)C2)cc1Cl (centres undefined) | 958 s |
| Cc1cccc(S(=O)(=O)Nc2ccc(-c3cn4ccc(C)nc4n3)cc2)c1 | 659 s |
| O=C(NCCc1ccccc1)N1CCCC1c1nc(-c2cccc(Cl)c2)no1 (centres undefined) | 1050 s |
| CC1CCN(C(=O)c2cc3c(s2)CCN(C(=O)c2ccc(Cl)cc2)C3)CC1 | 987 s |
| COCCc1nncn1C1CCN(C(=O)c2cc(Cl)ccc2F)CC1 | 657 s |
| CC(=O)c1cccc(NC(=O)N2C[C@H](c3nc(-c4ccncc4)no3)[C@@H](C)C2)c1 | 674 s |
| CC(=O)Nc1ccc2c(c1)CN(C(=O)c1ccc(C)cc1C)C(C(=O)N(C)C)C2 (centres undefined) | 778 s |
| O=C(NCc1ccco1)C1CCCN(c2nnc3c(Cl)cccn23)C1 (centres undefined) | 627 s |

| Compound | RP-LC retention time |
| --- | --- |
| COC(=O)c1ccc(-c2nc3cnccn3c2Nc2cccc(C)c2C)cc1 | 980 s |
| COC(=O)c1c(NC(=O)CN2C(=O)CCC2=O)sc(Cc2ccc3c(c2)OCO3)c1C | 864 s |
| CNC(=O)[C@@H]1CN(S(=O)(=O)C(C)C)C[C@H]1COC | 579 s |
| CN1C2CCC1CC(OC(=O)C(CO)c1ccccc1)C2 (centres undefined) | 638 s |
| O=S(=O)(c1cccs1)N1CCN(c2nc3c(F)cc(F)cc3s2)CC1 | 997 s |
| CC1CCCCN1S(=O)(=O)c1ccc2nc(N3CCN(c4cccc(Cl)c4)CC3)ccc2c1 (centres undefined) | 1250 s |
| O=C(COc1ccccc1Cl)N1CCCCC1CCN1CCCC1 (centres undefined) | 656 s |
| CCc1cccc(NC(=O)C2CCCN(c3nnc4ccccn34)C2)c1 (centres undefined) | 734 s |
| CCOC(=O)c1csc(NC(=O)C2CCCN2S(C)(=O)=O)n1 (centres undefined) | 649 s |
| Cc1ccsc1C(=O)Nc1ccc(-c2nnc3n2CCCC3)cc1 | 666 s |
| Cc1ccccc1-c1nc(-c2ccc(-n3ccnc3)nc2)no1 | 814 s |
| Cc1cccc(NC(=O)N2CCN(c3cc(N4CCCCC4)ncn3)CC2)c1C | 596 s |
| c1ccc(-c2nc(-c3ccncc3)no2)c(OC2CCN(CC3CC3)C2)c1 (centres undefined) | 642 s |
| CCn1cc(C)c(C(=O)O)c1CC(=O)N1CCc2ccccc2C1 | 780 s |
| CCCS(=O)(=O)N1CCC(F)(F)C(COCc2cccnc2)C1 (centres undefined) | 656 s |
| COc1ccc(-c2cc3n(n2)CCCN(C(=O)c2ccc4nc[nH]c4c2)C3)cc1 | 614 s |
| Cc1ccc(Cc2nc(CCNC(=O)C3CCN(S(=O)(=O)c4ccc(C)cc4)CC3)n[nH]2)cc1 | 769 s |
| CCOc1ccccc1CNC(=O)CN1C(=O)CSc2cccn2-c2ccccc21 | 962 s |
| COc1ccccc1NC(=O)c1cc(C(C)C)n2nccc2n1 | 1180 s |
| CCn1c(=O)c(C)nc2cc(-c3noc(C4CC(=O)N(c5ccc(C)c(C)c5)C4)n3)ccc21 (centres undefined) | 954 s |
| CN1C(=O)c2cccn2CC1C(=O)Nc1ccc(F)cc1 (centres undefined) | 677 s |
| CN1c2ccc(F)cc2C(=O)NC12CCN(C(=O)c1ccc(F)c(F)c1)CC2 | 776 s |
